“And” between values parts separate entries of the source, which are not always exact repeats. Equal entries are not always repeated.
Key:
[1] = test system: C-G base pair at N-terminal position of binding site 5′-A T N T A C A-3′ (N=C), 285 bp PCR product from plasmid pCW15; assay: Quantitative DNase I footprint titration, C-G site; conditions: 22° C., pH 7.0, 10 mM Tris-HCl, 10 mM KCl, 10 mM MgCl2, 5 mM CaCl2, mean of at least three, SD in parentheses
Method: (§1) Oligonucleotide primers SF1 (5′-AATTC-GAGCTCGGTACCGGGG-3′; SEQ ID NO:1) and SF2(5′-[…]-3′; SEQ ID NO:2) were synthesized by the Biopolymer Synthesis Center at the California Institute of Technology. Products from PCR amplification of the pCW15 using 5′-[γ-^32P]-labeled SF1 and SF2 were purified on a 7% non-denaturing polyacrylamide gel. Glycogen (20 mg/mL), dNTPs (PCR nucleotide mix), and all enzymes, unless otherwise stated, were purchased from Boehringer-Mannheim. Deoxyadenosine [γ-^32P]triphosphate was obtained from ICN. Calf thymus DNA (sonicated, deproteinized) and DNase I (7500 units/mL. FPLC pure) were from Amersham Pharmacia. AmpliTaq DNA polymerase was obtained from Perkin-Elmer and was used with provided buffers. Tris.HCl, DTT, RNase-free water, and 0.5 M EDTA were from United States Biochemical. Calcium chloride, potassium chloride, and magnesium chloride were purchased from Fluka. Tris-borate-EDTA was from GIBCO and bromophenol blue was from Acros. All reagents were used without further purification.
(§2) The DNA sequence specificity of novel thiophene-2-carboxamide-containing polymers (DNA-binding polymers 1-8) was evaluated by comparing their affinities for each Watson-Crick base pair to those of N-methylimidazole (Im) and N-methylpyrrole (Py) (DNA-binding polymers 9-10). […] Affinities were determined using DNase I footprinting, as performed by standard protocols (e.g., Trauger et al., Methods Enzymol. 2001, 340, 450).
(§3) Briefly, Quantitative DNase I footprinting titration experiments (10 mM Tris-HCl. 10 mM KCl, 10 mM MgC2, 5 mM CaCl2, pH 7.0, 22° C.) were performed on 5′-^32P end-labeled, 285 bp PCR product from plasmid construct pCW15 (as described previously in Ellervik et al., J. Am. Chem. Soc. 2000, 122, 9354). This plasmid contains four binding sites that vary at a single N-terminal position, 5′-A T N T A C A-3′, where N=T, A, G, C. The divergent behavior of control DNA-binding polymers 9 and 10 illustrates the need for development of new N-terminal residues.

[2] = test system: G-C base pair at N-terminal position, binding site 5′-A T G T A C A-3′, 285 bp PCR product from plasmid pCW15; assay: Quantitative DNase I footprint titration, G-C site; conditions: for Equilibrium association constant, G-C: DNase I footprint titration, 22° C., pH 7.0, 10 mM Tris-HCl, 10 mM KCl, 10 mM MgCl2, 5 mM CaCl2, mean of at least three, SD in parentheses
Method: as §1, §2, §3

[3] = test system: T-A base pair at N-terminal position of binding site 5′-A T N T A C A-3′ (N=T), 285 bp PCR product from plasmid pCW15; assay: Quantitative DNase I footprint titration, T-A site; conditions: for Equilibrium association constant, T-A: DNase I footprint titration, 22° C., pH 7.0, 10 mM Tris-HCl, 10 mM KCl, 10 mM MgCl2, 5 mM CaCl2, mean of at least three, SD in parentheses; for preference / specificity for T-A relative to G-C / selectivity for T-A relative to A-T: ratio of association constants
Method: as §1, §2, §3

[4] = test system: A-T base pair at N-terminal position of binding site 5′-A T N T A C A-3′ (N=A), 285 bp PCR product from plasmid pCW15; assay: Quantitative DNase I footprint titration, A-T site; conditions: 22° C., pH 7.0, 10 mM Tris-HCl, 10 mM KCl, 10 mM MgCl2, 5 mM CaCl2, mean of at least three, SD in parentheses
Method: as §1, §2, §3

[5] = test system: four binding sites 5′-A T N T A C A-3′, N=T, A, G, C, of pCW15 PCR product; assay: DNase I footprinting, sequence specificity across the four sites; conditions: comparison of affinities for the four Watson-Crick base pairs
Method: as §1, §2, §3

## Cc1ccsc1C(=O)Nc1cc(C(=O)Nc2cc(C(=O)Nc3cc(C(=O)NCCCC(=O)Nc4cn(C)c(C(=O)Nc5cc(C(=O)Nc6cc(C(=O)Nc7cc(C(=O)NCCC(=O)NCCCN(C)C)n(C)c7)n(C)c6)n(C)c5)n4)n(C)c3)n(C)c2)n(C)c1 [compound 2]
[1]
  Equilibrium association constant, C-G: 1.0 (0.3) × 10^7 M^−1
[2]
  Equilibrium association constant, G-C: 1.0 (0.4) × 10^7 M^−1
[3]
  Equilibrium association constant, T-A: 2.3 (0.4) × 10^9 M^−1
  preference / specificity for T-A relative to G-C: 140 fold
[4]
  Equilibrium association constant, A-T: 1.4 (0.2) × 10^9 M^−1

## COc1ccsc1C(=O)Nc1cc(C(=O)Nc2cc(C(=O)Nc3cc(C(=O)NCCCC(=O)Nc4cn(C)c(C(=O)Nc5cc(C(=O)Nc6cc(C(=O)Nc7cc(C(=O)NCCC(=O)NCCCN(C)C)n(C)c7)n(C)c6)n(C)c5)n4)n(C)c3)n(C)c2)n(C)c1 [compound 6]
[1]
  Equilibrium association constant, C-G: ≦1.0 × 10^7 M^−1
[2]
  Equilibrium association constant, G-C: ≦1.0 × 10^7 M^−1
[3]
  Equilibrium association constant, T-A: 2×10^9 M^−1 and 2.0 (0.4) × 10^9 M^−1
  preference / specificity for T-A relative to G-C: > 200 fold
  selectivity for T-A relative to A-T: 6 fold
[4]
  Equilibrium association constant, A-T: 3.2 (0.6) × 10^8 M^−1

## CN(C)CCCNC(=O)CCNC(=O)c1cc(NC(=O)c2cc(NC(=O)c3cc(NC(=O)c4nc(NC(=O)CCCNC(=O)c5cc(NC(=O)c6cc(NC(=O)c7cc(NC(=O)c8nccn8C)cn7C)cn6C)cn5C)cn4C)cn3C)cn2C)cn1C [compound 9]
[1]
  Equilibrium association constant, C-G: 3.2 (0.4) × 10^9 M^−1
[2]; ratio of association constants
  preference for G-C relative to T-A, A-T, and C-G base pairs: > 15 fold
[3]
  Equilibrium association constant, T-A: 3.8 (0.3) × 10^9 M^−1
[4]
  Equilibrium association constant, A-T: 2.8 (0.2) × 10^9 M^−1

## CN(C)CCCNC(=O)CCNC(=O)c1cc(NC(=O)c2cc(NC(=O)c3cc(NC(=O)c4nc(NC(=O)CCCNC(=O)c5cc(NC(=O)c6cc(NC(=O)c7cc(NC(=O)c8cccs8)cn7C)cn6C)cn5C)cn4C)cn3C)cn2C)cn1C [compound 1]
[1]
  Equilibrium association constant, C-G: 2.2 (0.3) × 10^9 M^−1
[2]
  Equilibrium association constant, G-C: 4.3 (0.4) × 10^8 M^−1
[3]
  Equilibrium association constant, T-A: 6.0 (0.7) × 10^9 M^−1
[5]
  sequence specificity (in words): little sequence specificity
[4]
  Equilibrium association constant, A-T: 4.7 (0.7) × 10^9 M^−1

## CN(C)CCCNC(=O)CCNC(=O)c1cc(NC(=O)c2cc(NC(=O)c3cc(NC(=O)c4nc(NC(=O)CCCNC(=O)c5cc(NC(=O)c6cc(NC(=O)c7cc(NC(=O)c8sccc8Cl)cn7C)cn6C)cn5C)cn4C)cn3C)cn2C)cn1C [compound 8]
[1]
  Equilibrium association constant, C-G: 2.1 (1.1)× 10^8 M^−1
[2]
  Equilibrium association constant, G-C: 3.1 (0.6) × 10^8 M^−1
[3]
  Equilibrium association constant, T-A: 1.3 (0.2) × 10^10 M^−1
  selectivity for T-A relative to A-T: 3 fold
[4]
  Equilibrium association constant, A-T: 3.7 (0.2) × 10^9 M^−1

## CN(C)CCCNC(=O)CCNC(=O)c1cc(NC(=O)c2cc(NC(=O)c3cc(NC(=O)c4nc(NC(=O)CCCNC(=O)c5cc(NC(=O)c6cc(NC(=O)c7cc(NC(=O)c8sccc8F)cn7C)cn6C)cn5C)cn4C)cn3C)cn2C)cn1C [compound 7]
[1]
  Equilibrium association constant, C-G: 2.9 (0.3) × 10^8 M^−1
[2]
  Equilibrium association constant, G-C: 3.7 (0.4) × 10^8 M^−1
[3]
  Equilibrium association constant, T-A: 1.2 (0.2) × 10^10 M^−1
  selectivity for T-A relative to A-T: 3 fold
[4]
  Equilibrium association constant, A-T: 3.9 (0.3) × 10^9 M^−1

## CC(=O)Nc1ccsc1C(=O)Nc1cc(C(=O)Nc2cc(C(=O)Nc3cc(C(=O)NCCCC(=O)Nc4cn(C)c(C(=O)Nc5cc(C(=O)Nc6cc(C(=O)Nc7cc(C(=O)NCCC(=O)NCCCN(C)C)n(C)c7)n(C)c6)n(C)c5)n4)n(C)c3)n(C)c2)n(C)c1 [compound 4]
[1]
  Equilibrium association constant, C-G: 6.0 (0.2) × 10^8 M^−1
[2]
  Equilibrium association constant, G-C: 6.6 (0.4) × 10^8 M^−1
[3]
  Equilibrium association constant, T-A: 5.9 (0.3) × 10^9 M^−1
[5]
  sequence specificity (in words): distinguish T-A from G-C but again do not distinguish T-A from A-T
[4]
  Equilibrium association constant, A-T: 2.9 (0.1) × 10^9 M^−1

## CN(C)CCCNC(=O)CCNC(=O)c1cc(NC(=O)c2cc(NC(=O)c3cc(NC(=O)c4nc(NC(=O)CCCNC(=O)c5cc(NC(=O)c6cc(NC(=O)c7cc(NC(=O)c8sccc8O)cn7C)cn6C)cn5C)cn4C)cn3C)cn2C)cn1C [compound 5]
[1]
  Equilibrium association constant, C-G: 8.4 (0.1) × 10^7 M^−1
[2]
  Equilibrium association constant, G-C: 2.1 (0.3) × 10^8 M^−1
[3]
  Equilibrium association constant, T-A: 6.2 (0.6) × 10^9 M^−1
[5]
  sequence specificity (in words): distinguish T-A from G-C but again do not distinguish T-A from A-T
[4]
  Equilibrium association constant, A-T: 4.5 (0.6) × 10^9 M^−1

## CN(C)CCCNC(=O)CCNC(=O)c1cc(NC(=O)c2cc(NC(=O)c3cc(NC(=O)c4nc(NC(=O)CCCNC(=O)c5cc(NC(=O)c6cc(NC(=O)c7cc(NC(=O)c8cccn8C)cn7C)cn6C)cn5C)cn4C)cn3C)cn2C)cn1C [compound 10]
[1]
  Equilibrium association constant, C-G: 2.6 (0.3) × 10^8 M^−1
[2]
  Equilibrium association constant, G-C: 1.1 (0.1) × 10^9 M^−1
[3]
  Equilibrium association constant, T-A: 5.1 (0.6) × 10^9 M^−1
[5]
  sequence specificity (in words): little sequence specificity
[4]
  Equilibrium association constant, A-T: 3.1 (0.3) × 10^9 M^−1

## CN(C)CCCNC(=O)CCNC(=O)c1cc(NC(=O)c2cc(NC(=O)c3cc(NC(=O)c4nc(NC(=O)CCCNC(=O)c5cc(NC(=O)c6cc(NC(=O)c7cc(NC(=O)c8sccc8N)cn7C)cn6C)cn5C)cn4C)cn3C)cn2C)cn1C [compound 3]
[1]
  Equilibrium association constant, C-G: 2.2 (0.3) × 10^8 M^−1
[2]
  Equilibrium association constant, G-C: 7.8 (0.9) × 10^8 M^−1
[3]
  Equilibrium association constant, T-A: 6.3 (1.0) × 10^9 M^−1
[5]
  sequence specificity (in words): distinguish T-A from G-C but again do not distinguish T-A from A-T
[4]
  Equilibrium association constant, A-T: 4.6 (0.6) × 10^9 M^−1

— patent US7713701B2, “DNA-binding polymers” (California Institute of Technology, priority 2004, dated 2010)
